Like-named read-outs stand apart in the source and are kept apart here.

Common to all, as to format: cell-based
The subject of experiment [1] is MES SA (uterine sarcoma cells). Description: Cytotoxic assay (CellTiter-Glo, 72 h), MES SA. Particulars: Homo sapiens, MES-SA, read-out: IC50 MES SA. (In general: Cellular ATP, detected with luciferase, serves as a proxy for viable cell number.)
Experiment [2] concerns breast cancer cell lines. Briefly: NCI-60 cytotoxicity, breast cancer. The conditions noted are these: Homo sapiens; NCI-60, selected value. As to the method:
(§1) A number of the synthesized compounds (i.e. Tb1-Tb23) were evaluated for their activity against a variety of cancer cell lines, namely the NCI-60 human cancer cell line panel representing leukemia, melanoma, lung, colon, brain, ovary, breast, prostate and kidney types of cancer through the In Vitro Cell Line Screening Project (IVCLSP) of the National Cancer Institute (NCI), and a summary of the results is shown in Table 1. […] As there was interest in the activity in certain other cell lines, these and the remaining compounds (Tb1-Tb41, PTb-D42 and PTb-D43) were subjected to further testing against MES SA (uterine sarcoma cells), MES SA DX (multidrug resistant uterine sarcoma cells), and HEK 293T (human embryonic kidney cells). […] Tubulysins are known to be substrates for Pgp pumps (Xiangming, et al., 2013; Kaur, et al., 2006; Szakacs, et al., 2006) as supported by the observed low activities of all tubulysins tested except Tb28, Tb32 and Tb33.

Experiment [3] concerns CNS cancer cell lines. Briefly: NCI-60 cytotoxicity, CNS cancer. The conditions noted are these: Homo sapiens; NCI-60, selected value. Here is the method: as §1
Experiment [4] has as its system HEK 293T (human embryonic kidney cells). Description: Cytotoxic assay (CellTiter-Glo, 72 h), HEK 293T. The conditions noted are these: Homo sapiens, HEK-293T, read-out: IC50 HEK 293T.
In experiment [5] the test system is MES SA DX (multidrug resistant uterine sarcoma cells). Description: Cytotoxic assay (CellTiter-Glo, 72 h), MES SA DX. Particulars: Homo sapiens.
For experiment [6], the system named is prostate cancer cell lines. Briefly: NCI-60 cytotoxicity, prostate cancer. Particulars: Homo sapiens; NCI-60, selected value. Here is the method:
as §1

Experiment [7] has as its system melanoma cell lines. Description: NCI-60 cytotoxicity, melanoma. The conditions noted are these: Homo sapiens; NCI-60, selected value. As to the method:
as §1

For experiment [8], the system named is leukemia cancer cell lines. Briefly: NCI-60 cytotoxicity, leukemia. Particulars: Homo sapiens; NCI-60, selected value. Here is the method: as §1
Experiment [9] concerns renal cancer cell lines. Briefly: NCI-60 cytotoxicity, renal cancer. The conditions noted are these: Homo sapiens; NCI-60, selected value. As to the method: as §1
Experiment [10] has as its system colon cancer cell lines. Description: NCI-60 cytotoxicity, colon cancer. Particulars: Homo sapiens; NCI-60, selected value. Here is the method:
as §1

Experiment [11] concerns ovarian cancer cell lines. Briefly: NCI-60 cytotoxicity, ovarian cancer. Particulars: Homo sapiens; NCI-60, selected value. As to the method:
as §1

The subject of experiment [12] is non-small cell lung cancer cell lines. Description: NCI-60 cytotoxicity, non-small cell lung cancer. Particulars: Homo sapiens; NCI-60, selected value. Here is the method:
as §1

As for `CC[C@H](C)[C@H](NC(=O)[C@H]1CCCCN1C)C(=O)N(C)[C@H](C[C@@H](OC(C)=O)c1nc(C(=O)N[C@@H](Cc2ccccc2)C[C@H](C)C(=O)OC)cs1)C(C)C` [Tb2, Methyl (2S,4R)-4-(2-((1R,3R)-1-acetoxy-3-((2S,3S)—N,3-dimethyl-2-((R)-1-methylpiperidine-2-carbo-xamido)pentanamido)-4-methylpentyl)thiazole-4-carboxamido)-2-methyl-5-phenylpentanoate], the IC50 in experiment [1] (72 h) is 0.2 nM; in experiment [1] it was 0.2 nM; in experiment [4] (72 h), 0.03 nM; in experiment [4], 0.03 nM; in [5], greater than 10 nM. Also, the concentration for 50% growth inhibition (GI50) was determined as 0.043 nM in [2]; 0.219 nM in experiment [3]; 0.162 nM in experiment [6]; 0.03 nM in [7]; 0.078 nM in [8]; 0.218 nM in [9]. For the same compound, the values for the GI50 in experiment [10], in experiment [11] and in experiment [12] were 0.158 nM, 0.042 nM and 0.28 nM, respectively.

Turning to `CC[C@H](C)[C@H](NC(=O)c1ccccn1)C(=O)N(C)[C@H](C[C@@H](OC(C)=O)c1nc(C(=O)N[C@@H](Cc2ccccc2)C[C@H](C)C(=O)OC)cs1)C(C)C` [Tb3, (2S,4R)-Methyl 4-(2-((1R,3R)-1-acetoxy-3-((2S,3S)—N,3-dimethyl-2-(picolinamido)pentanamido)-4-methylpentyl)thi-azole-4-carboxamido)-2-methyl-5-phenylpentanoate], the IC50 in experiment [1] (72 h), in [4] (72 h) and in [5] was greater than 50 nM each time. The GI50 in experiment [2], in [3], in experiment [6], in [7], in experiment [8] and in [9] was greater than 1000 nM each time. For the same compound, the GI50 in [10], in [11] and in experiment [12] was greater than 1000 nM in each case.

Take `CC[C@H](C)[C@H](NC(=O)N[C@@H](C)c1ccccc1)C(=O)N(C)[C@H](C[C@@H](OC(C)=O)c1nc(C(=O)N[C@@H](Cc2ccccc2)C[C@H](C)C(=O)OC)cs1)C(C)C` [Tb4, (2S,4R)-Methyl 4-(2-((2S,6S,9R,1 IR)-6-((S)-sec-butyl)-9-isopropyl-8-methyl-4,7,13-trioxo-2-phenyl-12-oxa-3,5,8-tri-azatetradecan-11-yl)thiazole-4-carboxamido)-2-methyl-5-phenylpentanoate]: the IC50 in experiment [1] (72 h), in [4] (72 h) and in experiment [5] was greater than 50 nM each time. The GI50 in experiment [2], in experiment [3], in experiment [6], in [7], in [8] and in experiment [9] was greater than 1000 nM throughout. For the same compound, the GI50 in experiment [10], in [11] and in [12] was greater than 1000 nM in each case.

`CC[C@H](C)[C@H](NC(=O)Nc1ccccc1)C(=O)N(C)[C@H](C[C@@H](OC(C)=O)c1nc(C(=O)N[C@@H](Cc2ccccc2)C[C@H](C)C(=O)OC)cs1)C(C)C` [Tb5, (2S,4R)-Methyl 4-(2-((1R,3R)-1-acetoxy-3-((2S,3S)—N,3-dimethyl-2-(3-phenylureido)pentanamido)-4-methylpentyl)thiazole-4-carboxamido)-2-methyl-5-phenylpentanoate]: the IC50 in experiment [1] (72 h), in experiment [4] (72 h) and in [5] was greater than 50 nM throughout. Moreover, the GI50 in [2] is 514 nM; in experiment [3], greater than 1000 nM; in experiment [6], greater than 1000 nM; in [7], 416 nM; in experiment [8], greater than 1000 nM; in experiment [9] it was greater than 1000 nM. Besides, the GI50 in [10], in [11] and in [12] was greater than 1000 nM each time.

Take `CC[C@H](C)[C@H](NC(=O)NC(C)(C)C)C(=O)N(C)[C@H](C[C@@H](OC(C)=O)c1nc(C(=O)N[C@@H](Cc2ccccc2)C[C@H](C)C(=O)OC)cs1)C(C)C` [Tb6, Methyl (2S,4R)-4-(2-((6S,9R,1R)-6-((S)-sec-butyl)-9-isopropyl-2,2,8-trimethyl-4,7,13-trioxo-12-oxa-3,5,8-triazatetradecan-11-yl)thiazole-4-carboxamido)-2-methyl-5-phenylpentanoate]: the IC50 in [1] (72 h), in experiment [4] (72 h) and in [5] was greater than 50 nM each time. Moreover, the GI50 came to 71.4 nM in experiment [2]; 439 nM in [3]; 689 nM in experiment [6]; 83.9 nM in experiment [7]; 286 nM in experiment [8]; 154 nM in experiment [9]. Besides, the figures for the GI50 in experiment [10], in experiment [11] and in experiment [12] were 339 nM, 127 nM and 164 nM, respectively.

For the compound `CC[C@H](C)[C@H](NC(=O)C12CC(NC(C)=O)(C1)C2)C(=O)N(C)[C@H](C[C@@H](OC(C)=O)c1nc(C(=O)N[C@@H](Cc2ccccc2)C[C@H](C)C(=O)OC)cs1)C(C)C` [Tb7, Methyl (2S,4R)-4-(2-((1R,3R)-3-((2S,3S)-2-(3-acetamidobicyclo[1.1.1]pentane-1-carboxamido)-N,3-dimethylpentanamido)-1-acetoxy-4-methylpentyl)thiazole-4-carboxamido)-2-methyl-5-phenyl-pentanoate], the IC50 in experiment [1] (72 h), in experiment [4] (72 h) and in experiment [5] was greater than 50 nM throughout. The GI50 in experiment [2] came out at 42.8 nM; in experiment [3], 219 nM; in experiment [6], 105 nM; in experiment [7], 31.4 nM; in [8] it was 17.6 nM; in experiment [9], 134 nM. Moreover, the concentration for 50% growth inhibition (GI50) in experiment [10] worked out at 61.3 nM; in [11], 48.5 nM; in [12], 57.8 nM.

With `CC[C@H](C)[C@H](NC(=O)C12CC(NC)(C1)C2)C(=O)N(C)[C@H](C[C@@H](OC(C)=O)c1nc(C(=O)N[C@@H](Cc2ccccc2)C[C@H](C)C(=O)OC)cs1)C(C)C` [Tb8, Methyl(2S,4R)-4-(2-((1R,3R)-1-acetoxy-3-((2S,3S)—N,3-dimethyl-2-(3-(methylamino)-bicyclo[1.1.1]pentane-1-carboxamido)pentanamido)-4-methylpentyl)thiazole-4-carboxamido)-2-methyl, 5-phenyl-pentanoate-phenylpentanoate], the IC50 in [1] (72 h), in experiment [4] (72 h) and in [5] was greater than 50 nM in each case. The GI50 amounted to 52.1 nM in [2]; 105 nM in experiment [3]; 125 nM in experiment [6]; 33.3 nM in experiment [7]; 9.62 nM in experiment [8]; 164 nM in [9]. Besides, the GI50 was 121 nM in [10], 75 nM in experiment [11] and 96.7 nM in experiment [12].

With `CC[C@H](C)[C@H](NC(=O)C12C3C4C1C1C2C3C41NC(C)=O)C(=O)N(C)[C@H](C[C@@H](OC(C)=O)c1nc(C(=O)N[C@@H](Cc2ccccc2)C[C@H](C)C(=O)OC)cs1)C(C)C` (stereo partly drawn) [Tb9, Methyl(2S,4R)-4-(2-((R,3R)-3-((2S,3S)-2-(4-acetamidocubane-1-carboxamido)-N,3-dimethylpentan amido)-1-acetoxy-4-methylpentyl)thiazole-4-carboxamido)-2-methyl-5-phenylpentanoate], the IC50 in [1] (72 h), in experiment [4] (72 h) and in experiment [5] was greater than 50 nM in each case. The GI50 was 53.2 nM in experiment [2]; 246 nM in experiment [3]; 459 nM in experiment [6]; 46.6 nM in [7]; 24.2 nM in [8]; 238 nM in experiment [9]. Besides, the 50% growth inhibitory concentration (GI50) in experiment [10] was determined as 331 nM; in experiment [11], 61 nM; in experiment [12] it was 83.6 nM.

`CC[C@H](C)[C@H](NC(=O)C12C3C4C1C1C2C3C41NC)C(=O)N(C)[C@H](C[C@@H](OC(C)=O)c1nc(C(=O)N[C@@H](Cc2ccccc2)C[C@H](C)C(=O)OC)cs1)C(C)C` (stereo partly drawn) [Tb10, Methyl(2S,4R)-4-(2-((1R,3R)-1-acetoxy-3-((2S,3S)—N,3-dimethyl-2-(4-(methylamino)cubane-1-carboxamido)pentanamido)-4-methylpentyl)thiazole-4-carboxamido)-2-methyl-5-phenylpentanoate]: the concentration for half-maximal inhibition (IC50) in experiment [1] (72 h), in [4] (72 h) and in [5] was greater than 50 nM each time. Further, the GI50 in experiment [2] came to 66.4 nM; in experiment [3], 271 nM; in experiment [6] it was 500 nM; in [7] it was 49.5 nM; in [8], 61.3 nM; in experiment [9], 413 nM. Also, the GI50 in [10] turned out to be 355 nM; in [11], 92.6 nM; in experiment [12], 60.2 nM.

Usually IC50 stands for the concentration needed to halve the response being measured. The term GI50 denotes the concentration at which growth is held to half of that of the control. High values mean less potent growth inhibition, low ones more potent growth inhibition.

The values above are taken from patent publication US10808007B2, “Desacetoxytubulysin H and analogs thereof” (WILLIAM MARSH RICE UNIVERSITY, priority 2015, dated 2020).
